Where “and” joins values, the source holds several entries; their conditions need not be identical. Equal entries are not always repeated. Toxic doses and inconclusive results are not listed.
Tested on: L1210 leukemia ip in BDF1 mice, survival T/C
Assay: NCI In Vivo Anticancer Drug Screen. Data for tumor model L1210 Leukemia (intraperitoneal) in B6D2F1 (BDF1) mice
Conditions: endpoint: mean survival time, higher = longer survival
Summary of the method: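 Mice bearing the transplanted tumor received compound or vehicle. Survival of the treated group was divided by that of the vehicle-treated control group to give the ratio.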

[1] = dose: 100.0 mg/kg/injection, schedule: Q01DX009 (ip), vehicle: saline
[2] = dose: 200.0 mg/kg/injection, schedule: Q01DX009 (ip), vehicle: saline
[3] = dose: 200.0 mg/kg/injection, schedule: Q04DX002 (ip), vehicle: saline
[4] = dose: 400.0 mg/kg/injection, schedule: Q01DX009 (ip), vehicle: saline
[5] = dose: 400.0 mg/kg/injection, schedule: Q04DX002 (ip), vehicle: saline
[6] = dose: 100.0 mg/kg/injection, schedule: Q04DX002 (ip), vehicle: Klucel (hydroxypropylcellulose) (HPC)
[7] = dose: 200.0 mg/kg/injection, schedule: Q04DX002 (ip), vehicle: Klucel (hydroxypropylcellulose) (HPC)
[8] = dose: 400.0 mg/kg/injection, schedule: Q04DX002 (ip), vehicle: Klucel (hydroxypropylcellulose) (HPC)
[9] = dose: 100.0 mg/kg/injection, schedule: Q01DX001 (ip), vehicle: saline
[10] = dose: 200.0 mg/kg/injection, schedule: Q01DX001 (ip), vehicle: saline
[11] = dose: 400.0 mg/kg/injection, schedule: Q01DX001 (ip), vehicle: saline
[12] = dose: 100.0 mg/kg/injection, schedule: Q04DX003 (ip), vehicle: Klucel (hydroxypropylcellulose) (HPC)
[13] = dose: 200.0 mg/kg/injection, schedule: Q04DX003 (ip), vehicle: Klucel (hydroxypropylcellulose) (HPC)
[14] = dose: 400.0 mg/kg/injection, schedule: Q04DX003 (ip), vehicle: Klucel (hydroxypropylcellulose) (HPC)
[15] = dose: 100.0 mg/kg/injection, schedule: Q01DX001 (ip), vehicle: saline with Tween-80
[16] = dose: 200.0 mg/kg/injection, schedule: Q01DX001 (ip), vehicle: saline with Tween-80
[17] = dose: 50.0 mg/kg/injection, schedule: Q01DX009 (ip), vehicle: saline with Tween-80
[18] = dose: 100.0 mg/kg/injection, schedule: Q01DX009 (ip), vehicle: saline with Tween-80

OC(c1cccc2ccccc12)c1c2ccccc2cc2ccccc12 (stereo unspecified)
T/C (dose: 50.0 mg/kg/injection, schedule: Q01DX009 (ip), vehicle: saline): 96 % of control | T/C (dose: 100.0 mg/kg/injection, schedule: Q01DX005 (ip), vehicle: saline): 98 % of control | T/C [1]: 102 % of control and 104 % of control | T/C (dose: 100.0 mg/kg/injection, schedule: Q04DX002 (ip), vehicle: saline): 93 % of control | T/C (dose: 200.0 mg/kg/injection, schedule: Q01DX005 (ip), vehicle: saline): 103 % of control | T/C [2]: 100 % of control | T/C [3]: 97 % of control | T/C (dose: 400.0 mg/kg/injection, schedule: Q01DX005 (ip), vehicle: saline): 106 % of control | T/C [4]: 108 % of control and 91 % of control | T/C [5]: 97 % of control

Cc1cccnc1NC(=S)Nc1cccc(C(F)(F)F)c1
T/C [6]: 95 % of control | T/C [7]: 95 % of control | T/C [8]: 92 % of control

Cc1ccc(S(=O)(=O)N2CCN(C)CC2)cc1
T/C [9]: 103 % of control | T/C [10]: 97 % of control | T/C [11]: 97 % of control

CCCCCCCCCCCC(=O)NC(=S)Nc1ccc([N+](=O)[O-])cc1C
T/C [12]: 88 % of control | T/C [13]: 86 % of control | T/C [14]: 90 % of control

CC(C)c1ccc(C(c2ccc(C(C)C)cc2)c2ccc(C(C)C)cc2)cc1
T/C [15]: 104 % of control | T/C [16]: 91 % of control

CN(C)c1ccc(/C=C(\C#N)c2ccccc2)cc1
T/C [15]: 87 % of control | T/C [16]: 88 % of control

CC(C)(CO)COS(=O)(=O)c1ccc(Br)cc1
T/C [17]: 89 % of control

Cc1cccc(C)c1NC(=O)Oc1ccc2ccccc2c1
T/C (dose: 100.0 mg/kg/injection, schedule: Q01DX009 (ip), vehicle: Klucel (hydroxypropylcellulose) (HPC)): 91 % of control | T/C [12]: 104 % of control | T/C (dose: 200.0 mg/kg/injection, schedule: Q01DX009 (ip), vehicle: Klucel (hydroxypropylcellulose) (HPC)): 94 % of control | T/C [13]: 104 % of control | T/C (dose: 400.0 mg/kg/injection, schedule: Q01DX009 (ip), vehicle: Klucel (hydroxypropylcellulose) (HPC)): 101 % of control | T/C [14]: 105 % of control

CNC(=O)OCCO
T/C [9]: 100 % of control | T/C [10]: 101 % of control | T/C [11]: 97 % of control

CC(=O)OC1CCC2(C)C(=CCC3C2CCC2(C)C3CC(Br)C2C(C)=O)C1 (stereo unspecified)
T/C [12]: 107 % of control | T/C [13]: 88 % of control | T/C [14]: 103 % of control

COc1ccc(C)cc1NC(=O)Nc1cc([N+](=O)[O-])ccc1F
T/C [6]: 87 % of control | T/C [7]: 104 % of control | T/C [8]: 108 % of control

COc1ccc(C2NC(=O)CCC2[N+](=O)[O-])cc1OC (stereo unspecified)
T/C (dose: 100.0 mg/kg/injection, schedule: Q04DX002 (ip), vehicle: saline with Tween-80): 91 % of control | T/C (dose: 200.0 mg/kg/injection, schedule: Q04DX002 (ip), vehicle: saline with Tween-80): 91 % of control | T/C (dose: 400.0 mg/kg/injection, schedule: Q04DX002 (ip), vehicle: saline with Tween-80): 94 % of control

Cc1[nH]c(=O)[nH]c(=O)c1CCO
T/C [9]: 96 % of control | T/C [10]: 102 % of control | T/C [11]: 100 % of control

O=C1C=CC(=NBr)C=C1
T/C (dose: 12.5 mg/kg/injection, schedule: Q01DX009 (ip), vehicle: Klucel (hydroxypropylcellulose) (HPC)): 89 % of control | T/C (dose: 25.0 mg/kg/injection, schedule: Q01DX009 (ip), vehicle: Klucel (hydroxypropylcellulose) (HPC)): 92 % of control | T/C (dose: 50.0 mg/kg/injection, schedule: Q01DX009 (ip), vehicle: Klucel (hydroxypropylcellulose) (HPC)): 89 % of control

CCCCC(=C/C(C)(C)C)/C(=C/C(C)(C)C)CCCC
T/C (dose: 150.0 mg/kg/injection, schedule: Q01DX009 (ip), vehicle: saline): 88 % of control | T/C (dose: 300.0 mg/kg/injection, schedule: Q01DX009 (ip), vehicle: saline): 88 % of control

CCOC(=O)c1ccc(Nc2nnc(-c3ccccc3Cl)s2)cc1
T/C (dose: 25.0 mg/kg/injection, schedule: Q04DX002 (ip), vehicle: gum acacia): 98 % of control | T/C (dose: 100.0 mg/kg/injection, schedule: Q04DX002 (ip), vehicle: gum acacia): 88 % of control | T/C (dose: 200.0 mg/kg/injection, schedule: Q04DX002 (ip), vehicle: gum acacia): 102 % of control | T/C (dose: 400.0 mg/kg/injection, schedule: Q04DX002 (ip), vehicle: gum acacia): 94 % of control

CC(C)(C)C1CCC(N=C(N)CS)CC1 (stereo unspecified)
T/C (dose: 1.5 mg/kg/injection, schedule: Q01DX001 (ip), vehicle: carboxymethylcellulose (CMC)): 98 % of control | T/C (dose: 3.0 mg/kg/injection, schedule: Q01DX001 (ip), vehicle: carboxymethylcellulose (CMC)): 98 % of control | T/C (dose: 6.0 mg/kg/injection, schedule: Q01DX001 (ip), vehicle: carboxymethylcellulose (CMC)): 95 % of control

CC1(C)N=C(N)N=C(N)N1c1ccc(CC(=O)Nc2ccc(S(=O)(=O)F)cc2)cc1
T/C (dose: 0.8 mg/kg/injection, schedule: Q01DX009 (ip), vehicle: saline): 95 % of control | T/C (dose: 4.0 mg/kg/injection, schedule: Q01DX009 (ip), vehicle: saline): 95 % of control | T/C (dose: 20.0 mg/kg/injection, schedule: Q01DX009 (ip), vehicle: saline): 97 % of control | T/C [1]: 97 % of control | T/C (dose: 500.0 mg/kg/injection, schedule: Q01DX009 (ip), vehicle: saline): 94 % of control

Nc1ncnc2nc(CO)[nH]c12
T/C [6]: 92 % of control | T/C [7]: 100 % of control | T/C [8]: 95 % of control

CC1COCCCCCC(=O)C1 (stereo unspecified)
T/C [9]: 91 % of control | T/C [10]: 107 % of control | T/C [11]: 107 % of control

Cc1ccc(C(CC(=O)NN)NN)c(O)c1 (stereo unspecified)
T/C [17]: 104 % of control | T/C [18]: 101 % of control | T/C (dose: 200.0 mg/kg/injection, schedule: Q01DX009 (ip), vehicle: saline with Tween-80): 108 % of control

Cc1cccc(NC(=O)c2cccc([N+](=O)[O-])c2C(=O)O)c1C
T/C [6]: 103 % of control | T/C [7]: 103 % of control | T/C [8]: 103 % of control

Cc1ncc2c[n+]([O-])ccn12
T/C (dose: 100.0 mg/kg/injection, schedule: Q04DX003 (ip), vehicle: saline): 97 % of control | T/C (dose: 200.0 mg/kg/injection, schedule: Q04DX003 (ip), vehicle: saline): 98 % of control

O=C1NOCC1N=Cc1ccccc1O (stereo unspecified)
T/C [12]: 102 % of control | T/C [13]: 98 % of control | T/C [14]: 101 % of control

O=C(COc1ccc(Cl)cc1)OCCCl
T/C (dose: 87.5 mg/kg/injection, schedule: Q01DX009 (ip), vehicle: other): 104 % of control | T/C [12]: 95 % of control | T/C (dose: 175.0 mg/kg/injection, schedule: Q01DX009 (ip), vehicle: other): 98 % of control | T/C [13]: 97 % of control | T/C (dose: 350.0 mg/kg/injection, schedule: Q01DX009 (ip), vehicle: other): 104 % of control | T/C [14]: 91 % of control

[C](#[C][Sn]([c]1ccccc1)([c]1ccccc1)[c]1ccccc1)[Sn]([c]1ccccc1)([c]1ccccc1)[c]1ccccc1
T/C [12]: 94 % of control | T/C [3]: 92 % of control | T/C [13]: 95 % of control | T/C [5]: 92 % of control | T/C [14]: 111 % of control

CCc1ccccc1NC(=O)Oc1cccc(C(F)(F)F)c1
T/C [1]: 104 % of control | T/C [2]: 94 % of control | T/C [4]: 103 % of control

CC(C)(C)P(=O)(O)O
T/C [18]: 95 % of control

COc1cc(C=Nc2cc(Br)c(OC)c(Br)c2)ccc1N(CCCl)CCCl
T/C (dose: 19.0 mg/kg/injection, schedule: Q01DX001 (ip), vehicle: carboxymethylcellulose (CMC)): 118 % of control | T/C (dose: 29.0 mg/kg/injection, schedule: Q01DX001 (ip), vehicle: carboxymethylcellulose (CMC)): 118 % of control | T/C (dose: 150.0 mg/kg/injection, schedule: Q01DX001 (ip), vehicle: carboxymethylcellulose (CMC)): 150 % of control | T/C (dose: 200.0 mg/kg/injection, schedule: Q01DX001 (ip), vehicle: carboxymethylcellulose (CMC)): 104 % of control

Cc1ccc(N2CCN(c3ccc([N+](=O)[O-])cc3)CC2)cc1Cl
T/C (dose: 100.0 mg/kg/injection, schedule: Q04DX003 (ip), vehicle: saline with Tween-80): 100 % of control | T/C (dose: 200.0 mg/kg/injection, schedule: Q04DX003 (ip), vehicle: saline with Tween-80): 100 % of control | T/C (dose: 400.0 mg/kg/injection, schedule: Q04DX003 (ip), vehicle: saline with Tween-80): 98 % of control

From PubChem BioAssay AID248 (DTP/NCI, 2004)
